The text below walks through data of ChEMBL document CHEMBL4813954, “Dibenzodiazepinone-type muscarinic receptor antagonists conjugated to basic peptides: Impact of the linker moiety and unnatural amino acids on M2R selectivity” (Eur J Med Chem, 2021).

Test [1] deals with Muscarinic acetylcholine receptor M3 (Homo sapiens, UniProt P20309). The test can be described thus: Displacement of [3H]-NMS from human muscarinic M3 receptor expressed in CHO cell membranes assessed as inhibition constant by radioligand competition analysis. Also on record: species or system Cell membrane.
Chain of Muscarinic acetylcholine receptor M3 (P20309 whole entry): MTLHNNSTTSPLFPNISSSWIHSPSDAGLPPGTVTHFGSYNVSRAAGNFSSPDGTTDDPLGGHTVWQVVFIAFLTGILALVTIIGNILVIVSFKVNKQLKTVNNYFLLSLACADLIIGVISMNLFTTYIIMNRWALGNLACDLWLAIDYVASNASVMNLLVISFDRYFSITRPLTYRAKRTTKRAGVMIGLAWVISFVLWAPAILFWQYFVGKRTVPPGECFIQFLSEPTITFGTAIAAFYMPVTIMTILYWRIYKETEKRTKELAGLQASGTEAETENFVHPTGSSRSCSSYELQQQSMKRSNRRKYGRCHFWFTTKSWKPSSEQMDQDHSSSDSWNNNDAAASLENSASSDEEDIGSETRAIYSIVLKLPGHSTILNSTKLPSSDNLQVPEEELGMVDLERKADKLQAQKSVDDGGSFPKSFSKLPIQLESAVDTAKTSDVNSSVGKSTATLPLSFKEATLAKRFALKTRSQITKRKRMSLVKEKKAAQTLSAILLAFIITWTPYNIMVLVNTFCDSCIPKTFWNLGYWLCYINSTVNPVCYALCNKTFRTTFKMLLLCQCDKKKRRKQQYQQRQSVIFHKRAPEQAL
Test [2] concerns the target Muscarinic acetylcholine receptors; M2 & M3 (Homo sapiens) (UniProt P20309+P08172). The experiment in a line: Selectivity index, […] for displacement of [3H]NMS from human recombinant muscarinic receptor M3 expressed in CHO cell membranes […] for displacement of [3H]NMS from human recombinant muscarinic receptor M2 expressed in CHO cell membranes. Background: Loss of bound radioactivity is the signal in a displacement assay; it reports binding, not function.

The target in test [3] is Muscarinic acetylcholine receptor M2 and M5 (Homo sapiens) (UniProt P08172+P08912). The experiment in a line: Selectivity index, […] for displacement of [3H]NMS from human recombinant muscarinic receptor M5 expressed in CHO cell membranes […] for displacement of [3H]NMS from human recombinant muscarinic receptor M2 expressed in CHO cell membranes.
Test [4] concerns the target T1, Muscarinic acetylcholine receptor M4 (Homo sapiens, UniProt P08173).
T1 sequence (P08173 whole entry): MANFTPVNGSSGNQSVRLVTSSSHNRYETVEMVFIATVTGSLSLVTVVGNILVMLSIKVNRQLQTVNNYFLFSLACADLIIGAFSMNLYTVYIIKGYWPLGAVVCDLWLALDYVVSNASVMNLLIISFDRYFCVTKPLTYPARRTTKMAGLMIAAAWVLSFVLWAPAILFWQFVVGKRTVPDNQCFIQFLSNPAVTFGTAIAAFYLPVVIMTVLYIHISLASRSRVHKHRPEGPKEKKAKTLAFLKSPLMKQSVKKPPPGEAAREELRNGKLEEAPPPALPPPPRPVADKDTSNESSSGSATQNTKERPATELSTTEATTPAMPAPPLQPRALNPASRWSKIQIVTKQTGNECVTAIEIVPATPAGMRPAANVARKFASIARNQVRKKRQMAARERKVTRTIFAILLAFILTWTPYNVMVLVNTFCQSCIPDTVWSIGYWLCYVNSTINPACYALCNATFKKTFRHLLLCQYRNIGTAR
The experiment in a line: Displacement of [3H]-NMS from human muscarinic M4 receptor expressed in CHO cell membranes assessed as inhibition constant by radioligand competition analysis. On the set-up: species or system Cell membrane.

In test [5] the target is T2, Muscarinic acetylcholine receptor M1 (Homo sapiens, UniProt P11229).
T2 sequence (P11229 whole entry): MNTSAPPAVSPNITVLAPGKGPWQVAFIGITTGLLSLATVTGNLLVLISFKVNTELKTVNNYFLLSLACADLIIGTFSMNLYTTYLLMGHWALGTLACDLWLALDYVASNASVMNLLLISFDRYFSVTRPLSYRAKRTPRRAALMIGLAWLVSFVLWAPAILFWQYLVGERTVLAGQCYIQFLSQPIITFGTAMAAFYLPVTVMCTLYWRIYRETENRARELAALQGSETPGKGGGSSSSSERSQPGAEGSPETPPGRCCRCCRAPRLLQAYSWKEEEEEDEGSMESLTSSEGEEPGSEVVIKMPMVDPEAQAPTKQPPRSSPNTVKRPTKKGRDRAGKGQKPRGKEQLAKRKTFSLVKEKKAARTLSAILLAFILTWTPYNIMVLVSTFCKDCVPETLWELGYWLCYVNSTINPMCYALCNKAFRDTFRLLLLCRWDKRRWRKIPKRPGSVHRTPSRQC
The test can be described thus: Displacement of [3H]-NMS from human muscarinic M1 receptor expressed in CHO cell membranes assessed as inhibition constant by radioligand competition analysis. Also on record: species or system Cell membrane.

Test [6] has as its target T3, Muscarinic acetylcholine receptor M2 (Homo sapiens, UniProt P08172).
T3 sequence (P08172 whole entry): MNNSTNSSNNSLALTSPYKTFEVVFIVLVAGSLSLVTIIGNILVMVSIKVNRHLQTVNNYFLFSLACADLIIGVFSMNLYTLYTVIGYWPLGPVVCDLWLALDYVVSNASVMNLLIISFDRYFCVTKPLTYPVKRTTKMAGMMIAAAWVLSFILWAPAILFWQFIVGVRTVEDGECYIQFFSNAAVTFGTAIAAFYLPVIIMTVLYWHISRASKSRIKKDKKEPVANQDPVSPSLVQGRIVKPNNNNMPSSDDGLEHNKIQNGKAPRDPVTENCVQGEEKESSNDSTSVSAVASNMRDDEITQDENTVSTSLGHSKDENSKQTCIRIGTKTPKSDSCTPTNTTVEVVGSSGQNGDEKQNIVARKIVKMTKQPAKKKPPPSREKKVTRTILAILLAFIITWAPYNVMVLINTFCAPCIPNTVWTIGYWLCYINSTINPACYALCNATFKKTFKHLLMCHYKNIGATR
The experiment in a line: Displacement of [3H]-NMS from human muscarinic M2 receptor expressed in CHO cell membranes assessed as inhibition constant by radioligand competition analysis. Also on record: species or system Cell membrane.

In test [7] the target is T4, Muscarinic acetylcholine receptor M5 (Homo sapiens, UniProt P08912).
T4 sequence (P08912 whole entry): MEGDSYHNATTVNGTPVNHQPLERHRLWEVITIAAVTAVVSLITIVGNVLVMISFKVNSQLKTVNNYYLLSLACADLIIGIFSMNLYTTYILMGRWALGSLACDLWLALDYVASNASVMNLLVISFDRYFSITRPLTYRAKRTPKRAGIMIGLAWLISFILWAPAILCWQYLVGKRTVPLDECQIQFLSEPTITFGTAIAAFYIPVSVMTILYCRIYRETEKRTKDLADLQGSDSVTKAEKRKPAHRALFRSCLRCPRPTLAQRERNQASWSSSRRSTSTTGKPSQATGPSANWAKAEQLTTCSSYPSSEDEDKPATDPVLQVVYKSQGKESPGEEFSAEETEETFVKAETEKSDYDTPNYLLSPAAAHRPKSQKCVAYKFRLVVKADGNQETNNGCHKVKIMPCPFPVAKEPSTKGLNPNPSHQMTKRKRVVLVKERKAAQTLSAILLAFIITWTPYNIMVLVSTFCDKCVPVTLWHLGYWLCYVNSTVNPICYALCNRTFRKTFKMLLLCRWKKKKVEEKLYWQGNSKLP
The test can be described thus: Displacement of [3H]-NMS from human muscarinic M5 receptor expressed in CHO cell membranes assessed as inhibition constant by radioligand competition analysis. Also on record: species or system Cell membrane.

As for `CC(=O)N[C@@H](CCCCN)C(=O)N[C@@H](CCCNC(=N)N)C(=O)NCCCCC1CCN(CC(=O)N2c3ccccc3NC(=O)c3ccccc32)CC1`, the Ki was 6310 nM in test [1]; 63.1 nM in test [4]; 39.8 nM in test [5]; 1 nM in test [6]; 316 nM in test [7]. Also, the Selectivity Index came to 6500 in test [2] and 400 in test [3].
On to `CCC(=O)NCCNC(=O)CCc1cn(CCCCC2CCN(CC(=O)N3c4ccccc4NC(=O)c4ccccc43)CC2)cn1`, for which the Ki was 63.1 nM in test [1]; 2.51 nM in test [4]; 7.94 nM in test [5]; 0.794 nM in test [6]; 158 nM in test [7]. In addition, the Selectivity Index in test [2] was 79; in test [3] it was 230.
On to `N=C(N)NCCC[C@@H](N)C(=O)NCCN1CCN(CCCC2CCN(CC(=O)N3c4ccccc4NC(=O)c4ccccc43)CC2)CC1`, for which the Ki was 251 nM in test [1]; 3.98 nM in test [4]; 11.7 nM in test [5]; 0.589 nM in test [6]; 676 nM in test [7]. Also, the Selectivity Index is greater than 160 in test [2] and 1300 in test [3].
As to `NCC(=O)NC1CCN(CC(=O)N2c3ccccc3NC(=O)c3ccccc32)CC1`, the results for the Ki in test [4], in test [5] and in test [6] were 1100 nM, 2950 nM and 1150 nM, respectively.
In the same order, the values of `NCCN1CCN(C(=O)CCCC2CCN(CC(=O)N3c4ccccc4NC(=O)c4ccccc43)CC2)CC1` are 1510 nM, 724 nM and 155 nM.
For the compound `CCCN[C@@H](CCCNC(=N)N)C(=O)N[C@@H](C)C(=O)N[C@@H](CCCCN)C(=O)NC(C)=O`, the Ki in test [6] was 6170 nM.
Turning to `Nc1ccccc1C(=O)N1CCC(N2CCC(Cc3ccc(S(=O)(=O)c4cccc(Cl)c4)cc3)CC2)CC1`, the Ki was 91.2 nM in test [4] and 324 nM in test [5].
Take `CCCN[C@@H](CCCNC(=N)N)C(=O)N[C@@H](CCCCN)C(=O)NC(C)=O`: the Ki in test [6] is 6460 nM.
Regarding `N=C(N)NCCC[C@@H](N)C(=O)NCCN1CCN(CCCCC2CCN(CC(=O)N3c4ccccc4NC(=O)c4ccccc43)CC2)CC1`, the Ki is 1.82 nM in test [4], 0.692 nM in test [5] and 0.229 nM in test [6].
In the same order, the values of `NC1CCN(CCCCC2CCN(CC(=O)N3c4ccccc4NC(=O)c4ccccc43)CC2)CC1` are 2.51 nM, 2.57 nM and 0.186 nM.
With `CC(=O)N[C@@H](CCCCN)C(=O)N[C@@H](C)C(=O)N[C@@H](CCCNC(=N)N)C(=O)NCCN1CCN(CCCCC2CCN(CC(=O)N3c4ccccc4NC(=O)c4ccccc43)CC2)CC1`, the Ki is 100 nM in test [1]; 2 nM in test [4]; 2.51 nM in test [5]; 0.1 nM in test [6]; 398 nM in test [7]. The figures for the Selectivity Index in test [2] and in test [3] were 1800 and 4900, respectively.
Consider `NCCN1CCN(CC(=O)NC2CCN(CC(=O)N3c4ccccc4NC(=O)c4ccccc43)CC2)CC1`, for which the Ki in test [4] is 25700 nM; in test [5], 47900 nM; in test [6], 2450 nM.
For `NCCN1CCN(CCCC2CCN(CC(=O)N3c4ccccc4NC(=O)c4ccccc43)CC2)CC1`, in that order: 18.6 nM, 44.7 nM and 3.55 nM.
`NCCN1CCN(CCC(=O)NC2CCN(CC(=O)N3c4ccccc4NC(=O)c4ccccc43)CC2)CC1`: the Ki in test [4] is 363 nM; in test [5], 363 nM; in test [6], 23.4 nM.
Turning to `CCCN[C@@H](CCNC(=N)N)C(=O)N[C@@H](CCCCN)C(=O)NC(C)=O`, in test [6], the inhibition constant Ki was 4470 nM.
As to `N=C(N)NCCC[C@H](N)C(=O)NCCN1CCN(CCCCC2CCN(CC(=O)N3c4ccccc4NC(=O)c4ccccc43)CC2)CC1`, the Ki was 0.794 nM in test [4], 1.35 nM in test [5] and 0.102 nM in test [6].
For the compound `CCN(CC)CCCCC1CCN(CC(=O)N2c3ccccc3NC(=O)c3ccccc32)CC1`, the Selectivity Index in test [2] is 37.
Regarding `CC(=O)N[C@@H](Cc1c[nH]c2ccccc12)C(=O)N[C@@H](C)C(=O)N[C@@H](Cc1ccc(O)cc1)C(=O)NCCCCC1CCN(CC(=O)N2c3ccccc3NC(=O)c3ccccc32)CC1`, the Ki in test [1] was 1260 nM; in test [4], 39.8 nM; in test [5], 100 nM; in test [7] it was 126 nM. For the same compound, the Selectivity Index is 56 in test [2] and 6.2 in test [3].

By Ki is commonly meant the dissociation constant of the complex between target and ligand, obtained from inhibition or displacement.
